Patent publication US10955413B2, “Method for measuring zygomycota and reagent kit for measuring zygomycota” (SEIKAGAKU CORPORATION, priority 2015, dated 2021)

Tested on: anti-chitosan polyclonal antibody (CTSpAb)
Assay: Competitive ELISA with 3-mer to 6-mer CTS oligosaccharide as competitive substance
Assay type: binding, fowl
Conditions: CTSpAb diluted 8,000-fold
Protocol: The Molecular Size of CTS which can be assayed by CTSpAb was determined through a competitive ELISA employing a 3-mer to 6-mer CTS oligosaccharide (product of Seikagaku Corporation) as a competitive substance.
To CTS, 1% (v/v) acetic acid was added so as to adjust the concentration to 2 μg/mL. The thus-prepared solution was added to a plate at 50 μL/well, and the plate was allowed to stand overnight at 4° C. The plate was washed twice with 9.57 mM PBS (pH: 7.5) at 300 μL/well, and then 25% BA/9.57 mM PBS (pH: 7.5) was added thereto at 200 μL/well. The plate was allowed to stand for 1 hour, to thereby fabricate CTS-immobilized plate. The plate was washed repeatedly four times with PBS-T at 300 μL/well. To the plate, a solution prepared by adding 10% BA/PBS-T to the CTS oligosaccharide so as to adjust the concentration to 0.00064 to 10 μg/mL, or 10% BA/PBS-T (CTS oligosaccharide-free) was added to the plate at 100 μL/well. Then, CTSpAb diluted 8,000-fold with 10% BA/PBS-T was added to the plate at 100 μL/well, and the plate was allowed to stand for 1 hour. The plate was washed repeatedly four times with PBS-T at 300 μL/well. Subsequently, a product of peroxidase-labeled anti-fowl IgY (IgG) (H+L) antibody 5,000-fold diluted with 10% BA/PBS-T was added to the plate at 100 μL/well, and the plate was allowed to stand for 1 hour. The plate was washed repeatedly four times with PBS-T at 300 μL/well, and then, TMB reagent was added to the plate at 100 μL/well, and the plate was allowed to stand for 30 minutes. Then, 1 N HCl was added to the plate at 100 μL/well. The absorbance of each well of the plate was measured by means of a well reader MP-96 at a measurement wavelength of 450 nm and a reference wavelength of 630 nm.
As is clear from Table 3, binding of CTSpAb to CTS on the plate was inhibited by 3- to 6-mer CTS oligosaccharide.

[1] = CTS oligosaccharide 0.00064 μg/mL
[2] = CTS oligosaccharide 0.0032 μg/mL
[3] = CTS oligosaccharide 0.016 μg/mL

Row | SMILES | % Inhibition [1] | % Inhibition [2] | % Inhibition [3] | % Inhibition (CTS oligosaccharide 0.08 μg/mL) | % Inhibition (CTS oligosaccharide 0.4 μg/mL) | % Inhibition (CTS oligosaccharide 2 μg/mL) | % Inhibition (CTS oligosaccharide 10 μg/mL)
1 | N[C@H]1[C@H](O[C@H]2[C@H](O)[C@@H](N)[C@H](O[C@H]3[C@H](O)[C@@H](N)C(O)O[C@@H]3CO)O[C@@H]2CO)O[C@H](CO)[C@@H](O)[C@@H]1O (stereo partly drawn) [3-mer] | 6% | 9% | 11% | 16% | 24% | 32% | 44%
2 | N[C@H]1[C@H](O[C@H]2[C@H](O)[C@@H](N)[C@H](O[C@H]3[C@H](O)[C@@H](N)[C@H](O[C@H]4[C@H](O)[C@@H](N)[C@H](O[C@H]5[C@H](O)[C@@H](N)C(O)O[C@@H]5CO)O[C@@H]4CO)O[C@@H]3CO)O[C@@H]2CO)O[C@H](CO)[C@@H](O)[C@@H]1O (stereo partly drawn) [5-mer] | 28% | 42% | 55% | 65% | 69% | 70% | 70%
3 | N[C@H]1[C@H](O[C@H]2[C@H](O)[C@@H](N)[C@H](O[C@H]3[C@H](O)[C@@H](N)[C@H](O[C@H]4[C@H](O)[C@@H](N)[C@H](O[C@H]5[C@H](O)[C@@H](N)[C@H](O[C@H]6[C@H](O)[C@@H](N)C(O)O[C@@H]6CO)O[C@@H]5CO)O[C@@H]4CO)O[C@@H]3CO)O[C@@H]2CO)O[C@H](CO)[C@@H](O)[C@@H]1O (stereo partly drawn) [6-mer, chitosan hexamer] | 25% | 39% | 51% | 63% | 66% | 68% | 68%
